From patent US20080085889A1, “Amidomethyl-Substituted 1-(Carboxyalkyl) Cyclopentyl-Carbonylamino-Benzazepine-N-Acetic Acid Compounds, Process and Intermediate Products for Their Preparation and Pharmaceutical Compositions Containing Them” (SOLVAY PHARMACEUTICALS GmbH, priority 2003, published 2008)

Columns and labels:
[1] = target: T1, soluble, human recombinant NEP (Homo sapiens, UniProt P08473); experiment: In-vitro investigation of the NEP inhibitory action (fluorescence-quenched Big-ET-1 analogue, HPLC); assay type: biochemical
T1 construct: soluble, human recombinant NEP; purchased Prof; Crine, University of Montreal, Canada
Procedure, shortened: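 Enzyme preincubated with test substance 15 min at 37° C, then incubated with fluorescence-quenched Mca peptide substrate 60 min at 37° C and stopped by heating to 95° C. Cleaved and intact peptide separated by reversed-phase HPLC; unquenched Mca peak area (ex 328/em 393 nm) gave % inhibition versus no-compound control, duplicates, IC50 derived.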

[2] = system: maximal SAP response to Big-ET; experiment: In vivo i.v. potency (ID50) to inhibit maximal SAP response to Big-ET in anesthetized rats; parameters: species or system Rats (Sprague-Dawley); conditions: Rattus norvegicus, iv, dose at which the pressor effect of Big-ET was suppressed by 50%
Procedure: Rats (Sprague-Dawley, CRLD=Charles River) were anaesthetised with 1 ml/kg Rompun/Ketavet 1:1. A pressure transducer (Statham) was inserted into the carotid artery to measure blood pressure.
For intravenous testing, one jugular vein was cannulated for administering the substance, and the other for administering Big-ET-1. […] Five minutes later, 0.5 nmol/kg Big-ET-1 was infused over a period of one minute. SAP, DAP, and heart rate were measured before administration of the substance, then before administration of Big-ET, and subsequently every five minutes after Big-ET administration over a period of 30 minutes using the pressure transducer in known manner. The maximum Big-ET-induced increase in blood pressure was calculated from the measured values as the difference between the value measured at the moment of maximum development of the Big-ET action (typically after 5 min) and the value measured before Big-ET infusion. The dose at which the pressor effect of Big-ET was suppressed by 50% (ID50) was estimated from the inhibitory effects observed over the range of dosages tested (n>5 rats for each dose).
The intravenous potency of the test compounds of Formula I (given as ID50 values) to inhibit the maximal SAP response to Big ET in anesthetized rats is set forth in the following Table 3b: […]

T1 sequence (P08473 52-750 limits assumed): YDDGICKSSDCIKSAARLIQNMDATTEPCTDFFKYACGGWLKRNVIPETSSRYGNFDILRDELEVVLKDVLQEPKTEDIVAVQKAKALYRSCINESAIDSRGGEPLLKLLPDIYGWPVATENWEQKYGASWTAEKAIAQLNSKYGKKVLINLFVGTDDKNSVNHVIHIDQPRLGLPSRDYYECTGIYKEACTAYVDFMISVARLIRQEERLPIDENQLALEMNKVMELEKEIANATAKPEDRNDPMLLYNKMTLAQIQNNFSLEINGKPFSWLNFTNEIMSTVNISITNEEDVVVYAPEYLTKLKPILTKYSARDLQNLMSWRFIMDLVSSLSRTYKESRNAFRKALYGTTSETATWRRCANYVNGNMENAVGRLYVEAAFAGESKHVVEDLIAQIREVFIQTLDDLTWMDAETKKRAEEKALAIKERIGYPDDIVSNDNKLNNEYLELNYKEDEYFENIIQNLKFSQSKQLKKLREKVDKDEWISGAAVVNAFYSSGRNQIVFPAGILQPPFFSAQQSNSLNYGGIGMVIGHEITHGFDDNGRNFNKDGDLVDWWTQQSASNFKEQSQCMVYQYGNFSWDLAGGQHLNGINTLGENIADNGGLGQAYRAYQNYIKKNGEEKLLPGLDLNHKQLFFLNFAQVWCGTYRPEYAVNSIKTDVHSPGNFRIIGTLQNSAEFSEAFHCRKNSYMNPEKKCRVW

| IC50 [1] [nM] | Compound | ED50 [2] [µmol/kg] |
| --- | --- | --- |
| 17.9 | CC(C)NC(=O)CC(CC1(C(=O)N[C@H]2CCc3ccccc3N(CC(=O)O)C2=O)CCCC1)C(=O)O (stereo in doubt) [Example 3, (2″rel1″)-2-{[(3S)-1-({[1-(carboxymethyl)-2-oxo-2,3,4,5-tetrahydro-1H-1-benzazepin-3-yl]amino}-carbonyl)cyclopentyl]methyl}-4-(isopropylamino)-4-oxobutyric acid] | – |
| 9 | CN(C)CCCN(C)C(=O)CC(CC1(C(=O)NC2CCc3ccccc3N(CC(=O)O)C2=O)CCCC1)C(=O)O (centres unmarked) [Example 64, 2-[(1-{[1-(carboxymethyl)-2-oxo-2,3,4,5-tetrahydro-1H-1-benzazepin-3-yl]carbamoyl}cyclopentyl)methyl]-4-{[3-(dimethylamino)propyl](methyl)amino}-4-oxobutanoic acid] | 0.2 |
| 4 | CCN(CCCCN)C(=O)CC(CC1(C(=O)NC2CCc3ccccc3N(CC(=O)O)C2=O)CCCC1)C(=O)O [Example 81, (2″rel1″)-4-[(4-aminobutyl)(ethyl)amino]-2-{[1-({[(3S)-1-(carboxymethyl)-2-oxo-2,3,4,5-tetrahydro-1H-1-benzazepin-3-yl]amino}carbonyl)cyclopentyl]methyl}-4-oxobutanoic acid] | 0.05 |
